Source: PMC10518255, “A first-in-class pan-lysyl oxidase inhibitor impairs stromal remodeling and enhances gemcitabine response and survival in pancreatic cancer” (Nature Cancer, 2023)
Several values for one entry are separate records, joined by “and”; a condition that tells them apart may be missing. Equal values may be shown once.

What was measured:
[1] = tested on: KPC mouse model of PDAC; test: Quantification of liver metastases (H&E), KPC survival study (Fig. 4g); format: in vivo; details: for liver metastases/mm2: individual animals
Experimental: Fig. 4 PXS-5505 administered in a KPC in vivo survival study. a, Schematic of the KPC in vivo survival study. Presence of a primary tumor in KPC mice was confirmed by two independent researchers (positive diagnosis) before commencement of daily treatment (Tx) on one of four treatment arms as follows: vehicle, 0.9% saline; Gem, twice-weekly gemcitabine (100 mg kg^−1 i.p.); PXS-5505, daily PXS-5505 at 20 mg kg^−1 i.p.; and PXS-5505 + Gem, daily PXS-5505 at 20 mg kg^−1 i.p. + twice-weekly gemcitabine (100 mg kg^−1 i.p.). b, Table of median survival (since diagnosis/commencement of treatment) across the four treatment groups (n = 30 biologically independent animals (vehicle), n = 31 biologically independent animals (Gem), n = 36 biologically independent animals (PXS-5505), n = 46 biologically independent animals (PXS-5505 + Gem)). c, Kaplan–Meier curves for overall survival across treatment arms (n = 30 biologically independent animals (vehicle), n = 31 biologically independent animals (Gem), n = 36 biologically independent animals (PXS-5505), n = 46 biologically independent animals (PXS-5505 + Gem)). P values determined by log-rank (Mantel–Cox) test. d, Representative maximum intensity projections of SHG multiphoton imaging for tumors from each treatment group (n = 1 FOV taken from one biologically independent animal per group) at end point (scale bars, 100 μm) and quantification of SHG peak signal intensity (n = 5 biologically independent animals per group and five FOV per animal). Data are mean ± s.d. […] Quantification of metastases (n = 18 biologically independent animals (vehicle), n = 18 biologically independent animals (Gem), n = 17 biologically independent animals (PXS-5505), n = 15 biologically independent animals (PXS-5505 + Gem)). Data are mean ± s.d.
The 4-µm formalin-fixed paraffin-embedded (FFPE) sections were cut and stained for H&E following standard histopathology methodologies or stained for CK19 using the Bond RX H2(30) protocol detailed above. […] The total number of liver metastases were quantified and determined using QuPath[57].

[2] = tested on: pMLC2; test: Immunohistochemistry of end-point KPC tumors: stromal regions; format: in vivo, mouse; details: for Quantification of pMLC2 positive staining in stromal regions: Extended Data 6D, KPC tumours at endpoint, individual FOV
Experimental: All tissues or matrices, including patient TMAs, were fixed in 10% buffered formalin and embedded in paraffin. The 4-μm sections of samples were deparaffinized with xylene and rehydrated in graded ethanol washes. For immunohistochemistry, Bond Dewax Solution (AR9222) was used. Antigen retrieval was performed using Bond RX H2(30) protocol: HIER 30 min ER1 (citrate pH 6) OR ER2 (EDTA pH 9) at 100 °C. Slides were quenched in BOND Polymer Refine Detection (Leica Biosystems DS9800). […] Slides were digitized on an Aperio slide scanner and representative areas per tumor acquired and analyzed by researchers blinded to the conditions of the experiment.
Extended Data Fig. 6 PXS-5505 in combination with gemcitabine in a KPC model. a. Quantification of proliferating cells (Ki67 positive nuclear staining) in KPC tumors at end point, treated as indicated. 5 fields of view (500 μm × 500 μm) per mouse and 10 mice per cohort were scored. […] Quantification of percent coverage of αSMA positive staining in KPC tumors at end point, treated as indicated. 3 fields of view (1000 μm × 1000 μm) per mouse and 10 mice per cohort were scored. […] Quantification of percent coverage of PDGFR-ß positive staining in KPC tumors at end point, treated as indicated. 3 fields of view (1000 μm × 1000 μm) per mouse and 10 mice per cohort were scored. […] Quantification of pMLC2 positive staining in stromal regions of KPC tumors at end point, treated as indicated. 3 fields of view (500 μm × 500 μm) per mouse and 10 mice per cohort were scored. […] Quantification of tumor vasculature (CD31 positive staining) in KPC tumors at end point, treated as indicated. 3 fields of view (1000 μm × 1000 μm) per mouse and 10 mice per cohort were scored. […] Quantification of STAT3 activation (pSTAT3 positive nuclear staining) in KPC tumors at end point, treated as indicated. 3 fields of view (1000 μm × 1000 μm) per mouse and 5 mice per cohort were scored. […] Scale bars = 100 μm. g Quantification of macrophage infiltration (F4/80 positive staining) in KPC tumors at end point, treated as indicated. […]

| SMILES | metastatic foci / metastatic burden in the liver ([1]; compared to vehicle) | liver metastases/mm2 [1] | Quantification of pMLC2 positive staining in stromal regions [2] | pMLC2 in stromal regions ([2]; KPC tumors at end point) |
| --- | --- | --- | --- | --- |
| Nc1ccn([C@@H]2O[C@H](CO)[C@@H](O)C2(F)F)c(=O)n1 [Gem, gemcitabine] | did not reduce the number of metastatic foci | 0.000998 /mm2 and 0.00153 /mm2 and 0.000533 /mm2 and 0.002596 /mm2 and 0.002539 /mm2 and 0.002266 /mm2 and 0.001775 /mm2 and 0.001805 /mm2 and 0.001681 /mm2 and 0.002472 /mm2 and 0.001465 /mm2 and 0.003681 /mm2 and 0.001157 /mm2 and 0.004279 /mm2 and 0.0007747 /mm2 and 0.000926 /mm2 and 0.002131 /mm2 and 0.001372 /mm2 | 92.08 and 84.2 and 87.45 and 82.3 and 82.92 and 94.71 and 90.49 and 43.06 and 73.39 and 39.68 and 25.28 and 42.05 and 30.69 and 23.6 and 44.73 and 91.07 and 86.73 and 81.83 and 77.4 and 63.11 and 93.35 and 65.58 and 88.53 and 67.95 and 49 and 89.81 and 73.17 and 62.17 and 93.12 and 52.2 | increased pMLC2 |
| Cl.Cl.NC/C=C(\F)CS(=O)(=O)c1cccc2cccnc12.O [PXS-5505, (Z)-3-fluoro-4-(quinolin-8-ylsulfonyl)but-2-en-1-amine dihydrochloride monohydrate] | – | 0.001562 /mm2 and 0.001978 /mm2 and 0.00288 /mm2 and 0.001774 /mm2 and 0.002087 /mm2 and 0.001249 /mm2 and 0.00165 /mm2 and 0.00324 /mm2 and 0.001709 /mm2 and 0.002256 /mm2 and 0.001847 /mm2 and 0.001474 /mm2 and 0.001116 /mm2 and 0.0009543 /mm2 and 0.001461 /mm2 and 0.00148 /mm2 and 0.001125 /mm2 | 16.71 and 49.28 and 7.302 and 93.81 and 91.78 and 78.97 and 53.28 and 54.73 and 45.61 and 13.2 and 20.93 and 42.23 and 36.07 and 17.51 and 40.83 and 47.04 and 47.28 and 39.88 and 19.03 and 15.52 and 73.22 and 64.14 and 60.07 and 90.97 and 8.8 and 20.91 and 61.66 and 4.245 and 28.34 and 17.54 | – |
